The assay concerns the target T1, C. elegans ser-7a / SER-7 (Caenorhabditis elegans, UniProt Q22895).
T1 construct: ser-7a cDNA expressed pan-neuronally (Psnb-1) in C. elegans ser-7(tm1325) null mutant
T1 sequence (Q22895 1-435): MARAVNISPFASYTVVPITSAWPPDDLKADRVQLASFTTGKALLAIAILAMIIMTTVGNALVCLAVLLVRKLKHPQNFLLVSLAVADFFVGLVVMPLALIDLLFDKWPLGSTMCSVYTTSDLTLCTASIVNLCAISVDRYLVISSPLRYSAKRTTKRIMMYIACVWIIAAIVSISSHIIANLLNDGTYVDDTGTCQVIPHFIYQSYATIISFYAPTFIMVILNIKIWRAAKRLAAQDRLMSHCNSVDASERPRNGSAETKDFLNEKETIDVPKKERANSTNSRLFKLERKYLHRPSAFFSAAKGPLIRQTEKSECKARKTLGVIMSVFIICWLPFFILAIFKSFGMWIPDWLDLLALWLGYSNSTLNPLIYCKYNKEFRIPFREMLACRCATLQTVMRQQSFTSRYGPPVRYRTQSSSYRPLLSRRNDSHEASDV
Briefly: pharyngeal pumping of cut-head preparation, C. elegans ser-7 null expressing ser-7a. The conditions noted are these: agonist; Dent's saline pH 7.4, 0.1% BSA; response dependent on SER-7.

Experimental findings from article PMC7556481 (PLoS Pathogens, 2020) are described below.

Broadly, the EC50 is the concentration giving half of the maximal effect. Compound `NCCc1c[nH]c2ccc(O)cc12` [serotonin] returned an EC50 of 782 nM.
